Entries after “also recorded” stand apart in the source; their conditions may differ. Where two headings read alike, the source gives them in different places.
Experiments:
CYP2C19 = CYP2C19 (Homo sapiens, UniProt P33261); experiment: Time-dependent inhibition (IC50 shift) of CYP2C19 in human liver microsomes; settings: risdiplam up to 12.5 μM
CYP3A4 [1] = target: T1, CYP3A4 (Homo sapiens, UniProt P08684); settings: microsomes, pH 7.4
Procedure: (§1) Donors CMV negative for serology are unm
(§2) All incubations were conducted in duplicate.
(§3) The first order rate constant for inactivation (λ or kabs) was estimated from slopes of the linear portion of the curves.
Target sequence in this assay (P08684 whole entry): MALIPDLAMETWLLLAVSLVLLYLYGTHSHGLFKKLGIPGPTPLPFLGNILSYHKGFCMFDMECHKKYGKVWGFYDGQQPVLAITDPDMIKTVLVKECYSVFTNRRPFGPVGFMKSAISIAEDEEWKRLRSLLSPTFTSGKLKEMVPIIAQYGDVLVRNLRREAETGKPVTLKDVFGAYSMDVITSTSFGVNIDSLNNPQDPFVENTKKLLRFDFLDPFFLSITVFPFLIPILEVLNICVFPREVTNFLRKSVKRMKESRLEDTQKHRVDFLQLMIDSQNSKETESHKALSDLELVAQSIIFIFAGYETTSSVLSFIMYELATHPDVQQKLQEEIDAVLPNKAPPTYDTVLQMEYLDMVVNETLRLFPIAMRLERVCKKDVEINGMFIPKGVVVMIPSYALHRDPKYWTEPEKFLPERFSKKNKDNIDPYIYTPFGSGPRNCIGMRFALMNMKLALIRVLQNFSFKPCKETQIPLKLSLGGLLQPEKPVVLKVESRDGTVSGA

CYP3A4 [2] = settings: human, pH 7.4
Procedure: as §1, §2, §3

CYP2C8 [3] = target: T2, CYP2C8 (Homo sapiens, UniProt P10632); experiment: in vitro; settings: pooled human liver microsomes, pH 7.4, probe amodiaquine
T2 sequence (P10632 1-490): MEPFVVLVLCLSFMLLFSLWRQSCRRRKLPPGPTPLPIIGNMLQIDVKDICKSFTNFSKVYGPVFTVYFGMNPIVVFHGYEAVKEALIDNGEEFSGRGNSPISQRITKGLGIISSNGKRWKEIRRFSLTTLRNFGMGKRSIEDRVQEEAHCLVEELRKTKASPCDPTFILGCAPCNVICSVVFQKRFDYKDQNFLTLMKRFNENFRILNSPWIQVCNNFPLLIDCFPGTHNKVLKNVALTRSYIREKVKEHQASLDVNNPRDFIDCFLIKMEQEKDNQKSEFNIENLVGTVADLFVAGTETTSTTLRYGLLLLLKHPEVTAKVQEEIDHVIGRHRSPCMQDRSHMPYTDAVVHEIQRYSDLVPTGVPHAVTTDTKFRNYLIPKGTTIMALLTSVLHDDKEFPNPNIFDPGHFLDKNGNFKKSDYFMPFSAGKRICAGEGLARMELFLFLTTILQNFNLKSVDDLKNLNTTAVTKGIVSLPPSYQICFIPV

CYP1A2 [4] = target: T3, CYP1A2 (Homo sapiens, UniProt P05177); experiment: in vitro; settings: pooled human liver microsomes, pH 7.4, probe phenacetin
T3 sequence (P05177 1-516): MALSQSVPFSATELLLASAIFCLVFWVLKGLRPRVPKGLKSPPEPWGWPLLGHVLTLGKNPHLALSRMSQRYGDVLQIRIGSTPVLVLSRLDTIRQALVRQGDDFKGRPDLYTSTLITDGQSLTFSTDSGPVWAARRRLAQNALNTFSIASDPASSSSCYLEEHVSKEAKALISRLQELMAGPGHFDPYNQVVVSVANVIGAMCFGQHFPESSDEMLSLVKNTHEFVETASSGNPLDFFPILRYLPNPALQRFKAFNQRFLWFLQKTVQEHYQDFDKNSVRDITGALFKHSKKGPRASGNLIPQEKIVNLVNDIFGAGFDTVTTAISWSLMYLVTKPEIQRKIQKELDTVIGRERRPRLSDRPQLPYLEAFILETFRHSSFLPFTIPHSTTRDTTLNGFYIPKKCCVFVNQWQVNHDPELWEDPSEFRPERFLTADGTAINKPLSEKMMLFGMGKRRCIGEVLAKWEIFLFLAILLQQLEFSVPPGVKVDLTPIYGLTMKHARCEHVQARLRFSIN

CYP2B6 = target: T4, CYP2B6 (Homo sapiens, UniProt P20813); experiment: biochemical
T4 sequence (P20813 1-491): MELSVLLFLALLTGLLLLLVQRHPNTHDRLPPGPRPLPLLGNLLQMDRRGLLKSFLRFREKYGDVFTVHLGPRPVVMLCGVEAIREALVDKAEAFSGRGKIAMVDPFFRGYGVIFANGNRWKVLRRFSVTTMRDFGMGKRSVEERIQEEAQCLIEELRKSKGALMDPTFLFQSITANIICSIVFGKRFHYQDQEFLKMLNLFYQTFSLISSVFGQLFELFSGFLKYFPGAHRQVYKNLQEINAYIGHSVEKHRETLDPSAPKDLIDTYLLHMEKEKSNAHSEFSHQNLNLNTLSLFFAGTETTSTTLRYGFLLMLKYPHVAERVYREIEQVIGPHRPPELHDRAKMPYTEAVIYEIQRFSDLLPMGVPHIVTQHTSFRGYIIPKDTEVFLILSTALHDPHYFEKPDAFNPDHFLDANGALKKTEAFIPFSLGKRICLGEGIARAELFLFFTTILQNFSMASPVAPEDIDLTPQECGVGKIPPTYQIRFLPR

CYP2D6 = CYP2D6 (Homo sapiens, UniProt P10635); experiment: biochemical
Sequence of CYP2D6 (P10635 whole entry): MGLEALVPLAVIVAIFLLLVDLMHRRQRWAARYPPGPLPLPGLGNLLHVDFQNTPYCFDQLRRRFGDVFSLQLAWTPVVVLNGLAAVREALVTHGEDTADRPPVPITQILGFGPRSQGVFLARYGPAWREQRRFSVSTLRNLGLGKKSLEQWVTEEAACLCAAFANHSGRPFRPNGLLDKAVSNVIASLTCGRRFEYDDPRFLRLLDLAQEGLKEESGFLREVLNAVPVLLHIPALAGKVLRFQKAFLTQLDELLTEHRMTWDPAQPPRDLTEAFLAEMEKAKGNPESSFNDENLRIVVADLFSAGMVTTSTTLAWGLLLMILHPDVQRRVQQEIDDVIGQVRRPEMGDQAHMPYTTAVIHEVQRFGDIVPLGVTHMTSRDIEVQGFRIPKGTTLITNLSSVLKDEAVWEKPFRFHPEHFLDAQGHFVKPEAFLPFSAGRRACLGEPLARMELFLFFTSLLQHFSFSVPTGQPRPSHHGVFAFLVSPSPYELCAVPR

CYP2C8 [5] = target: T2, CYP2C8; experiment: Time-dependent inhibition (IC50 shift) of CYP2C8 in human liver microsomes; settings: risdiplam up to 12.5 μM
Procedure: as §1, §2
(§4) % remaining=(C+I/C^−I)*100

CYP1A2 [6] = target: T3, CYP1A2; experiment: Time-dependent inhibition (IC50 shift) of CYP1A2 in human liver microsomes; type: in vitro ADME; settings: risdiplam up to 12.5 μM
Procedure: as §1, §2, §4

CYP3A4 [7] = target: T1, CYP3A4; experiment: Direct inhibition of CYP3A4 (midazolam and testosterone) in human liver microsomes; type: in vitro ADME; settings: human, microsomes
Target sequence in this assay (P08684 2-503): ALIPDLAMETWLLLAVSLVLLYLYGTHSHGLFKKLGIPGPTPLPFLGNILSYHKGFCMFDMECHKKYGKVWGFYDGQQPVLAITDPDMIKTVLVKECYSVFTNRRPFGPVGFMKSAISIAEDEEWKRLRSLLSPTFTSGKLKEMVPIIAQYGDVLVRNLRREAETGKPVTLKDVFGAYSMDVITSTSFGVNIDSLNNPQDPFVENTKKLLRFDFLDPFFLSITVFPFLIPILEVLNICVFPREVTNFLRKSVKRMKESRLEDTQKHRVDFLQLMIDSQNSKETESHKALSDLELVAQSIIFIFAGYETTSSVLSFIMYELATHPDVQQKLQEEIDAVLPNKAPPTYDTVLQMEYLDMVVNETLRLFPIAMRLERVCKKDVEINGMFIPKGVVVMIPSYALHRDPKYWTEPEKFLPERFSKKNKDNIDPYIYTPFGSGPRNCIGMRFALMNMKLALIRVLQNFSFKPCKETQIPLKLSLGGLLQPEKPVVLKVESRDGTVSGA

Sequence of CYP2C19 (P33261 whole entry): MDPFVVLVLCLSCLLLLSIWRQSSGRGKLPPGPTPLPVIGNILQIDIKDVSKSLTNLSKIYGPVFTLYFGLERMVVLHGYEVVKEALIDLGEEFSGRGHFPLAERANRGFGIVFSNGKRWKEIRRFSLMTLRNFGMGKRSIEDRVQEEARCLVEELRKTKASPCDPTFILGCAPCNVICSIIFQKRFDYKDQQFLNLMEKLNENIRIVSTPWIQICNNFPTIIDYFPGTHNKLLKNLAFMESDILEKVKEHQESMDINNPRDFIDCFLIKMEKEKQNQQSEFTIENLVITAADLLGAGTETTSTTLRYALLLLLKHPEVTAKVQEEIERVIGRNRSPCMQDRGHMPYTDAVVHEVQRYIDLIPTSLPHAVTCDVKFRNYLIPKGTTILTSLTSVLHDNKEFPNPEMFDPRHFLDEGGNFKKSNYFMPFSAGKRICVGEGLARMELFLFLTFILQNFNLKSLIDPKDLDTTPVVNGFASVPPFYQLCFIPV

## Cc1cn2nc(-c3cc(=O)n4cc(N5CCNC6(CC6)C5)ccc4n3)cc(C)c2n1 [risdiplam, 7-(4,7-diazaspiro[2.5]octan-7-yl)-2-(2,8-dimethylimidazo[1,2-b]pyridazin-6-yl)pyrido[1,2-a]pyrimidin-4-one]
CYP2C19
  time-dependent inhibition (in words): did not show any significant reversible or time-dependent inhibition; also recorded: No significant reversible or time-dependent inhibition; also recorded: No significant time-dependent inhibition; also recorded: low potential to cause direct or time-dependent inhibition
CYP3A4 [1]; 0 h, 0.1 μM
  Percent CYP3A4 activity remaining: 100%
CYP3A4 [1]; 0 h, 0.2 μM
  Percent CYP3A4 activity remaining: 100%
CYP3A4 [1]; 0 h, 0.5 μM
  Percent CYP3A4 activity remaining: 100%
CYP3A4 [1]; 0 h, 1.3 μM
  Percent CYP3A4 activity remaining: 100%
CYP3A4 [1]; 0 h, 3.2 μM
  Percent CYP3A4 activity remaining: 100%
CYP3A4 [1]; 0 h, 8 μM
  Percent CYP3A4 activity remaining: 100%
CYP3A4 [1]; 0 h, 12.5 μM
  Percent CYP3A4 activity remaining: 100%
CYP3A4 [1]; 4 min, 0.1 μM
  Percent CYP3A4 activity remaining: 90%
CYP3A4 [1]; 4 min, 0.2 μM
  Percent CYP3A4 activity remaining: 90%
CYP3A4 [1]; 4 min, 0.5 μM
  Percent CYP3A4 activity remaining: 87%
CYP3A4 [1]; 4 min, 1.3 μM
  Percent CYP3A4 activity remaining: 82%
CYP3A4 [1]; 4 min, 3.2 μM
  Percent CYP3A4 activity remaining: 89%
CYP3A4 [1]; 4 min, 8 μM
  Percent CYP3A4 activity remaining: 76%
CYP3A4 [1]; 4 min, 12.5 μM
  Percent CYP3A4 activity remaining: 62%
CYP3A4 [1]; 0.25 h, 0.1 μM
  Percent CYP3A4 activity remaining: 80%
CYP3A4 [1]; 0.25 h, 0.2 μM
  Percent CYP3A4 activity remaining: 80%
CYP3A4 [1]; 0.25 h, 0.5 μM
  Percent CYP3A4 activity remaining: 77%
CYP3A4 [1]; 0.25 h, 1.3 μM
  Percent CYP3A4 activity remaining: 71%
CYP3A4 [1]; 0.25 h, 3.2 μM
  Percent CYP3A4 activity remaining: 62%
CYP3A4 [1]; 0.25 h, 8 μM
  Percent CYP3A4 activity remaining: 41%
CYP3A4 [1]; 0.25 h, 12.5 μM
  Percent CYP3A4 activity remaining: 29%
CYP3A4 [1]; 0.5 h, 0.1 μM
  Percent CYP3A4 activity remaining: 78%
CYP3A4 [1]; 0.5 h, 0.2 μM
  Percent CYP3A4 activity remaining: 78%
CYP3A4 [1]; 0.5 h, 0.5 μM
  Percent CYP3A4 activity remaining: 75%
CYP3A4 [1]; 0.5 h, 1.3 μM
  Percent CYP3A4 activity remaining: 65%
CYP3A4 [1]; 0.5 h, 3.2 μM
  Percent CYP3A4 activity remaining: 49%
CYP3A4 [1]; 0.5 h, 8 μM
  Percent CYP3A4 activity remaining: 25%
CYP3A4 [1]; 0.5 h, 12.5 μM
  Percent CYP3A4 activity remaining: 17%
CYP3A4 [1]; 0.75 h, 0.1 μM
  Percent CYP3A4 activity remaining: 72%
CYP3A4 [1]; 0.75 h, 0.2 μM
  Percent CYP3A4 activity remaining: 72%
CYP3A4 [1]; 0.75 h, 0.5 μM
  Percent CYP3A4 activity remaining: 68%
CYP3A4 [1]; 0.75 h, 1.3 μM
  Percent CYP3A4 activity remaining: 55%
CYP3A4 [1]; 0.75 h, 3.2 μM
  Percent CYP3A4 activity remaining: 39%
CYP3A4 [1]; 0.75 h, 8 μM
  Percent CYP3A4 activity remaining: 19%
CYP3A4 [1]; 0.75 h, 12.5 μM
  Percent CYP3A4 activity remaining: 13%
CYP3A4 [1]; 1 h, 0.1 μM
  Percent CYP3A4 activity remaining: 65%
CYP3A4 [1]; 1 h, 0.2 μM
  Percent CYP3A4 activity remaining: 65%
CYP3A4 [1]; 1 h, 0.5 μM
  Percent CYP3A4 activity remaining: 59%
CYP3A4 [1]; 1 h, 1.3 μM
  Percent CYP3A4 activity remaining: 48%
CYP3A4 [1]; 1 h, 3.2 μM
  Percent CYP3A4 activity remaining: 36%
CYP3A4 [1]; 1 h, 8 μM
  Percent CYP3A4 activity remaining: 15%
CYP3A4 [1]; 1 h, 12.5 μM
  Percent CYP3A4 activity remaining: 10%
CYP3A4 [2]
  KI: 13 µM
CYP2C8 [3]
  activity: 93%
CYP1A2 [4]
  activity: 94%
CYP2B6
  IC50: > 12.5 µM
CYP2D6
  IC50: > 12.5 µM
CYP2C8 [5]
  time-dependent inhibition (in words): did not show any significant reversible or time-dependent inhibition; also recorded: No significant reversible or time-dependent inhibition; also recorded: No significant time-dependent inhibition; also recorded: low potential to cause direct or time-dependent inhibition
CYP1A2 [6]
  time-dependent inhibition (in words): did not show any significant reversible or time-dependent inhibition; also recorded: No significant reversible or time-dependent inhibition; also recorded: No significant time-dependent inhibition; also recorded: low potential to cause direct or time-dependent inhibition
CYP3A4 [7]; pH 7.4, IC50, direct inhibition, substrate Midazolam
  IC50: > 12.5 µM
CYP3A4 [7]; pH 7.4, IC50, direct inhibition, substrate Testosterone
  IC50: 11 µM
CYP3A4 [7]; pH 7.4, IC50, direct, CYP3A4-Midazolam Activity
  IC50: < 12.5 µM
